Measured values from patent US9656971B2, “COMT inhibitors” (Hoffmann-La Roche Inc., priority 2012, dated 2017).

target: T1, Rec. human COMT (Homo sapiens, UniProt P21964); assay: COMT-Fluorescence Assay; assay type: biochemical; details: COMT-fluorescence assay, rec. human COMT 25 nM, 4-Nitrocatechol-Alexa488 200 nM, SAM 500 nM; read-out: IC50
T1 sequence (P21964 1-271): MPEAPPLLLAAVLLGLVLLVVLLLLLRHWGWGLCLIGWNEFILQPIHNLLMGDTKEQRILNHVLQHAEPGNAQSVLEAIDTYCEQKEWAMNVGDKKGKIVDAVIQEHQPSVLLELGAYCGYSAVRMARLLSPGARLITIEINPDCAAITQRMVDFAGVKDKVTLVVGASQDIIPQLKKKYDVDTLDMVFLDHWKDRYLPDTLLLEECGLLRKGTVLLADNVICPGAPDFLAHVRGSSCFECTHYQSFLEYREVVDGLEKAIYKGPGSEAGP
Protocol: This intramolecular interaction is disturbed if the 4-Nitrocatechol is methylated. […] This increase of fluorescence intensity can be followed in a kinetic measurement. The slope in the linear range of the kinetic is calculated. An inhibitor compound decreases the slope.
Signal [rfu/min]=(rfu(end-point)−rfu(startpoint))/incubation_time_#2

SMILES | IC50
CS(=O)(=O)Cc1ccccc1-c1cc(O)c2nc[nH]c(=O)c2c1Cl [Example 119, 5-Chloro-8-hydroxy-6-(2-(methylsulfonylmethyl)phenyl)quinazolin-4(3H)-one] | 610 nM
Cn1ncc2c(-c3cc(O)c4nc[nH]c(=O)c4c3)cccc21 [Example 156, 8-Hydroxy-6-(1-methyl-1H-indazol-4-yl)quinazolin-4(3H)-one] | 10 nM
O=c1[nH]cnc2c(O)cc(-c3ccc(F)cc3)c(-c3ccnc(N4CCOCC4)c3)c12 [Example 59, 6-(4-Fluorophenyl)-8-hydroxy-5-(2-morpholinopyridin-4-yl)quinazolin-4(3H)-one] | 40 nM
O=c1[nH]cnc2c(O)cc(C3CCOCC3)cc12 [Example 69, 8-Hydroxy-6-(tetrahydro-2H-pyran-4-yl)quinazolin-4(3H)-one 2,2,2-trifluoroacetate] | 1040 nM
O=c1[nH]cnc2c(O)cc(Br)c(Cl)c12 [Example 117, 6-Bromo-5-chloro-8-hydroxyquinazolin-4(3H)-one] | 40 nM
O=c1[nH]cnc2c(O)cc(-c3cnn(-c4ccc(F)cc4)c3)cc12 [Example 152, 6-[1-(4-Fluoro-phenyl)-1H-pyrazol-4-yl]-8-hydroxy-3H-quinazolin-4-one] | 70 nM
COCc1nc(C)sc1-c1cc(O)c2nc[nH]c(=O)c2c1 [Example 46, 8-Hydroxy-6-(4-(methoxymethyl)-2-methylthiazol-5-yl)quinazolin-4(3H)-one] | 10 nM
O=c1[nH]cnc2c(O)cc(-c3ccc(F)cc3)cc12 [Example 125, 6-(4-Fluorophenyl)-8-hydroxyquinazolin-4(3H)-one] | 20 nM
O=c1[nH]cnc2c(O)cc(C(O)c3ccccc3)cc12 (stereo not shown) [Example 67, 8-Hydroxy-6-(hydroxy(phenyl)methyl)quinazolin-4(3H)-one] | 7450 nM
Cc1nnc(-c2cc(O)c3nc[nH]c(=O)c3c2)s1 [Example 83, 8-Hydroxy-6-(5-methyl-1,3,4-thiadiazol-2-yl)quinazolin-4(3H)-one] | 60 nM

Second part, the compound after the results:

IC50 | SMILES
20 nM | O=C(c1cccc(-c2cc(O)c3nc[nH]c(=O)c3c2)c1)N1CCC(F)(F)CC1 [Example 199, 6-[3-(4,4-Difluoro-piperidine-1-carbonyl)-phenyl]-8-hydroxy-3H-quinazolin-4-one]
20 nM | Cc1c(-c2cc(O)c3nc[nH]c(=O)c3c2)cnn1-c1ccccc1 [Example 204, 8-Hydroxy-6-(5-methyl-1-phenyl-1H-pyrazol-4-yl)quinazolin-4(3H)-one]
170 nM | Cc1n[nH]cc1-c1cc(O)c2nc[nH]c(=O)c2c1 [Example 205, 8-Hydroxy-6-(3-methyl-1H-pyrazol-4-yl)quinazolin-4(3H)-one]
20 nM | O=c1[nH]cnc2c(O)cc(-c3ccnc(N4CCNCC4)c3)cc12 [Example 185, 8-Hydroxy-6-(2-(piperazin-1-yl)pyridin-4-yl)quinazolin-4(3H)-one]
20 nM | O=c1[nH]cnc2c(O)cc(-c3ccccc3COCCN3CCOCC3)cc12 [Example 236, 8-Hydroxy-6-[2-(2-morpholin-4-yl-ethoxymethyl)-phenyl]-3H-quinazolin-4-one]
730 nM | O=c1[nH]cnc2c(O)c(Cl)c(-c3ccc(F)cc3)cc12 [Example 245, 7-Chloro-6-(4-fluorophenyl)-8-hydroxyquinazolin-4(3H)-one]

same assay, conditions: IC50, COMT-fluorescence assay, rec. human COMT 25 nM, 4-Nitrocatechol-Alexa488 200 nM, SAM 500 nM

IC50 | SMILES
10 nM | O=c1[nH]cnc2c(O)cc(-c3ccc(-n4cccn4)cc3)cc12 [Example 141, 8-Hydroxy-6-(4-pyrazol-1-yl-phenyl)-3H-quinazolin-4-one]
870 nM | CS(=O)(=O)c1ccccc1-c1cc(O)c2nc[nH]c(=O)c2c1 [Example 212, 8-Hydroxy-6-(2-(methylsulfonyl)phenyl)quinazolin-4(3H)-one]
10 nM | CC(C)Oc1cccc(-c2cc(O)c3nc[nH]c(=O)c3c2)c1 [Example 24, 8-Hydroxy-6-(3-isopropoxyphenyl)quinazolin-4(3H)-one]
